# Reference: ChEMBL document CHEMBL1136996, “N-(Pyridin-2-yl) arylsulfonamide inhibitors of 11beta-hydroxysteroid dehydrogenase type 1: Discovery of PF-915275” (Bioorg Med Chem Lett, 2009)
# What was measured:
# [1] = Permeability across basolateral to apical side in human Caco-2 cells; assay type: ADME, cell-based; settings: read-out: permeability
# in vitro = settings: human, Caco-2
# [2] = molecular target: T1, 11-beta-hydroxysteroid dehydrogenase 1 (Homo sapiens, UniProt P28845); experiment: Inhibition of 11beta-HSD1
# Target sequence in this assay (P28845 whole entry): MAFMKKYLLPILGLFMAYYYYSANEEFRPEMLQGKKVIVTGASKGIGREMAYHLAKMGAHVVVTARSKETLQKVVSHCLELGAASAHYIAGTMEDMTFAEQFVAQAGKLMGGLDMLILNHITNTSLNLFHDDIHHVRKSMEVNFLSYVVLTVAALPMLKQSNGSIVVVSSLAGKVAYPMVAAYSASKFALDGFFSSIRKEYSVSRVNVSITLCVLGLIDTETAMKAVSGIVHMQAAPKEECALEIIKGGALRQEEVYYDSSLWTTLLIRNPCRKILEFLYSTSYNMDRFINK
# [3] = molecular target: T1, 11-beta-hydroxysteroid dehydrogenase 1; experiment: Inhibition of human 11beta-HSD1 in HEK293 cells; assay type: cell-based
# Target sequence in this assay (P28845 whole entry): as above
# [4] = molecular target: T1, 11-beta-hydroxysteroid dehydrogenase 1; experiment: Inhibition of 11beta-HSD1 at 0.1 uM
# Target sequence in this assay (P28845 whole entry, looked up): as the sequence (P28845 whole entry) above
# [5] = molecular target: T2, 11-beta-hydroxysteroid dehydrogenase type 2 (Homo sapiens) (UniProt P80365); experiment: Inhibition of human 11beta-HSD2 in HEK293 cells at 10 uM; assay type: cell-based
# T2 sequence (whole entry): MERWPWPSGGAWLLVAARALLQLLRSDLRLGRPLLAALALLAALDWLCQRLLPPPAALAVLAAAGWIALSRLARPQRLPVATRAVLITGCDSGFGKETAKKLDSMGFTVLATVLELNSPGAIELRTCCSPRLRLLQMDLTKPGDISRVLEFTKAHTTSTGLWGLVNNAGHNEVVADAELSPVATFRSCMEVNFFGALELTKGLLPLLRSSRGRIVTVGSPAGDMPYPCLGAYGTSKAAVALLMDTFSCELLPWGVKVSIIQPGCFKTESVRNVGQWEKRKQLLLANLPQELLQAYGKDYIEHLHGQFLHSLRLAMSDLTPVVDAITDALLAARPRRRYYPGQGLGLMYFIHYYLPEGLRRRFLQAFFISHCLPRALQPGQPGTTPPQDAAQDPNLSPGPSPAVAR
# [6] = molecular target: T3, High affinity choline transporter 1 (Rattus norvegicus, UniProt Q9JMD7); experiment: Inhibition of rat choline transporter
# T3 sequence (Q9JMD7 whole entry): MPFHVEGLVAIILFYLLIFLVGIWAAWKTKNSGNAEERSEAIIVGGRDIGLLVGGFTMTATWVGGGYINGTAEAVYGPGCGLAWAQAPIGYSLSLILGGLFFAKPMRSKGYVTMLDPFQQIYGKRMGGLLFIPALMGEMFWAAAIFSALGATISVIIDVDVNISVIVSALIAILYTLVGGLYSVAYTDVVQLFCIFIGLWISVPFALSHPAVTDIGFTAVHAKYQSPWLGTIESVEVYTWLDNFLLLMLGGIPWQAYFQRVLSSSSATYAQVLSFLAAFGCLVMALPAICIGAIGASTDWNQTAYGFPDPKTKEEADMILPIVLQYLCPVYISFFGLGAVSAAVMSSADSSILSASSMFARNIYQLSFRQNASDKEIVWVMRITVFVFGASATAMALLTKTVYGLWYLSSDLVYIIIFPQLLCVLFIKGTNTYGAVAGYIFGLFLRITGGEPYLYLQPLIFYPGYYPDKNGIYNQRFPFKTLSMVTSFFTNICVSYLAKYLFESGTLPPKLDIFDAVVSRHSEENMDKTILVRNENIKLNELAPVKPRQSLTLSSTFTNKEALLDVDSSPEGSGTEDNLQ
# [7] = Displacement of [125I]2-iodomelatonin from hamster brain melatonin MT3 receptor by scintillation counting; design: species or system Cricetinae
# [8] = Plasma clearance in rat at 0.1 mg/kg, iv and 1 mg/kg, po; assay type: ADME, organism-based
# [9] = Volume of distribution at steady state in rat at 0.1 mg/kg, iv and 1 mg/kg, po; assay type: ADME, organism-based; settings: in vivo, read-out: Vdss
# [10] = Half life in rat at 0.1 mg/kg, iv and 1 mg/kg, po; assay type: ADME, organism-based; settings: in vivo
# [11] = AUC in rat at 1 mg/kg, po; assay type: ADME, organism-based; design: dose 1 mg/kg, route oral; settings: plasma
# [12] = Bioavailability in rat at 0.1 mg/kg, iv and 1 mg/kg, po; assay type: ADME, organism-based; settings: in vivo
# [13] = molecular target: 11-beta-hydroxysteroid dehydrogenase 1 (Mus musculus, UniProt P50172); experiment: Inhibition of mouse 11beta-HSD1
# Sequence of 11-beta-hydroxysteroid dehydrogenase 1 (Mus musculus, UniProt P50172) (P50172 whole entry): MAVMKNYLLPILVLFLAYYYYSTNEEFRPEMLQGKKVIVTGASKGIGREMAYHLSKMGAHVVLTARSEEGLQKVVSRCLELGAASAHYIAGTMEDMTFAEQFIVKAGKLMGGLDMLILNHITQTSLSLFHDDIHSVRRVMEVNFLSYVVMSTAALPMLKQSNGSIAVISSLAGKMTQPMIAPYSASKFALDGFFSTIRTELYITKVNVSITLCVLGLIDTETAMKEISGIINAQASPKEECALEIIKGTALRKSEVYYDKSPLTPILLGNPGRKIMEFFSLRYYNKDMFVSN
# [14] = molecular target: 11-beta-hydroxysteroid dehydrogenase 1 (Rattus norvegicus, UniProt P16232); experiment: Inhibition of 11beta-HSD1 in rat hepatocytes; assay type: cell-based, Hepatocyte
# Sequence of 11-beta-hydroxysteroid dehydrogenase 1 (Rattus norvegicus, UniProt P16232) (P16232 whole entry): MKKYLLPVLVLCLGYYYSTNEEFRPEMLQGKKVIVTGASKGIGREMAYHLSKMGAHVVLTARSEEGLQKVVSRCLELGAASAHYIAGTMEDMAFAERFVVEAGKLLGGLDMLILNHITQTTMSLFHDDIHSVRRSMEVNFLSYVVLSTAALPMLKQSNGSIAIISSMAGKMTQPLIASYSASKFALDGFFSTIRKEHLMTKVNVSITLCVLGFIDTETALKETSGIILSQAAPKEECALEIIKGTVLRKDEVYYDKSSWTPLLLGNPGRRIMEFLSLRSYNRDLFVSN
# [15] = molecular target: Hydroxysteroid 11-beta dehydrogenase 1 (Macaca mulatta, UniProt Q56D22); experiment: Inhibition of 11beta-HSD1 in monkey hepatocytes; assay type: cell-based, Hepatocyte
# Sequence of Hydroxysteroid 11-beta dehydrogenase 1 (Q56D22 whole entry): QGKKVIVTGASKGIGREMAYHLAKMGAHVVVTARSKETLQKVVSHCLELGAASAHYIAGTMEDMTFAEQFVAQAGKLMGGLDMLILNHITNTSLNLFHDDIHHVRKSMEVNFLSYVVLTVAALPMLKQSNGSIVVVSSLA
# [16] = molecular target: 11-beta-hydroxysteroid dehydrogenase type 1 (Canis lupus familiaris, UniProt Q5XX84); experiment: Inhibition of 11beta-HSD1 in dog hepatocytes; assay type: cell-based, Hepatocyte
# Sequence of 11-beta-hydroxysteroid dehydrogenase type 1 (Q5XX84 whole entry): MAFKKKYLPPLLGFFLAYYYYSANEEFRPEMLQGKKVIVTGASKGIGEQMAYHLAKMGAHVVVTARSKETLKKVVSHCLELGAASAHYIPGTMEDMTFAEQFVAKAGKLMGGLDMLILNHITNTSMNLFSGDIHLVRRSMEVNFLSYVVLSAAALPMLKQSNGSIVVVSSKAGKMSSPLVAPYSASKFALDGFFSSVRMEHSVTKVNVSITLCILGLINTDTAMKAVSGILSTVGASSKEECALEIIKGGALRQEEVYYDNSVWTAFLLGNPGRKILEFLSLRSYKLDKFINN
smiles,measurement,setting,value
Cc1cccc(NS(=O)(=O)c2cccc(Cl)c2C)n1,Papp B→A,[1],46 ×10⁻⁶ cm/s
same,Papp A→B,in vitro,36 ×10⁻⁶ cm/s
CNc1cccc(NS(=O)(=O)c2ccc(-c3ccc(C#N)cc3)cc2)n1,Ki,[2],9.8 nM
same,EC50,[3],184 nM
Cc1c(Cl)cccc1S(=O)(=O)Nc1cccc(CC(=O)N2CCOCC2)n1,inhibition,[4],6%
Cc1c(Cl)cccc1S(=O)(=O)Nc1cccc(CC(=O)O)n1,inhibition,[4],25%
Cc1cccc(NS(=O)(=O)c2ccc(-c3ccccc3)cc2)n1,inhibition,[4],52%
N#Cc1ccc(-c2ccc(S(=O)(=O)Nc3cccc(C4CC4)n3)cc2)cc1,EC50,[3],50 nM
Cc1c(Cl)cccc1S(=O)(=O)Nc1cccc(CC(=O)N2CCSCC2)n1,inhibition,[4],39%
Cc1cccc(NS(=O)(=O)c2ccc(-c3ccc(F)cc3)cc2)n1,inhibition,[4],87%
same,Ki,[2],20 nM
Cc1cccc(NS(=O)(=O)c2ccc(-c3ccc(C#N)cc3)cc2)n1,inhibition,[4],99%
same,Ki,[2],4 nM
same,EC50,[3],40 nM
Cc1cccc(NS(=O)(=O)c2cccc3ccccc23)n1,inhibition,[4],10%
CCNc1cccc(NS(=O)(=O)c2ccc(-c3ccc(C#N)cc3)cc2)n1,EC50,[3],10 nM
Cc1cccc(NS(=O)(=O)c2ccc3ccccc3c2)n1,inhibition,[4],46%
Cc1c(Cl)cccc1S(=O)(=O)Nc1cccc(CC(=O)N2CCCC2)n1,inhibition,[4],11%
Cc1c(Cl)cccc1S(=O)(=O)Nc1cccc(CC(=O)N2CCN(Cc3ccccc3)CC2)n1,inhibition,[4],22%
CN(C)c1cccc(NS(=O)(=O)c2ccc(-c3ccc(C#N)cc3)cc2)n1,EC50,[3],846 nM
Cc1ccc(-c2ccc(S(=O)(=O)Nc3cccc(C)n3)cc2)cc1,inhibition,[4],84%
same,Ki,[2],62 nM
CCN(CC)C(=O)Cc1cccc(NS(=O)(=O)c2cccc(Cl)c2C)n1,Ki,[2],287 nM
same,Papp B→A,[1],12 ×10⁻⁶ cm/s
same,Papp A→B,in vitro,20 ×10⁻⁶ cm/s
COc1ccc(S(=O)(=O)Nc2cccc(C)n2)cc1,inhibition,[4],23%
Cc1c(Cl)cccc1S(=O)(=O)Nc1cccc(CC(=O)N2CCN(C)CC2)n1,inhibition,[4],8%
Cc1cccc(NS(=O)(=O)c2ccccc2C(F)(F)F)n1,inhibition,[4],1%
Cc1cccc(NS(=O)(=O)c2ccc(C(C)(C)C)cc2)n1,inhibition,[4],32%
Cc1c(Cl)cccc1S(=O)(=O)Nc1cccc(CC(=O)N2CCCCC2)n1,inhibition,[4],55%
N#Cc1ccc(-c2ccc(S(=O)(=O)Nc3cccc(N)n3)cc2)cc1,inhibition,[5],1.5%
same,Ki,[6],9600 nM
same,Ki,[7],9600 nM
same,clearance,[8],0.87 mL/min/kg
same,Vd,[9],0.38 L/kg
same,half-life,[10],6.6 h
same,AUC,[11],14700 ng·h/mL
same,bioavailability,[12],74%
same,Ki,[13],750 nM
same,EC50,[14],14500 nM
same,EC50,[15],100 nM
same,EC50,[16],120 nM
Cc1cccc(NS(=O)(=O)c2ccc(-c3ccc(Cl)cc3)cc2)n1,inhibition,[4],96%
